Measurements as given in US9272047B2, “Use of biological surfactant as anti-inflammatory agent and tissue preservative solution” (Shaperon Inc., priority 2007, dated 2016).
“Also recorded” adds a separate entry of the source.

What was measured:
NF-κB = test: Inhibition of E. coli LPS-stimulated NF-κB activation (CD25 expression) in 3FP CHO cells; assay type: cell-based, Chinese hamster; settings: for nuclear transcription factor inhibition: LPS-stimulated 3FP cells, CD25 expression; for inhibition effect for LPS-stimulated CD25 expression (NF-κB activation): live 7AAD(−) LPS-stimulated 3FP cells
Procedure: In order to evaluate the inhibition efficacy for the activation of E. coli LPS-stimulated NF-κB in a CHO cell, % expression of CD 25 in the CHO cell was evaluated as the following method, and FACS analysis after staining with 7-AAD was carried out to evaluate the cytotoxicity. Bile salts were classified into 3 groups based on their solubility in different solvents, as follows:
The CHO cells expressing CD25 under the regulation of a nuclear factor (NF-κB) promoter, shown FIG. 2A, were used for this experiment. Toll-like receptor 2 (TLR2) and CD14 gene-transformed CHO cells (hereinafter referred to as “3FP cells”) were also used.
The next day, the cultured cells were treated with bile acid derivatives and LPS, and were incubated in a CO2 incubator for 15 hr at 37° C.
After stimulating the above incubated cells for 15 hr, the culture solution was centrifuged (1200 rpm, 5 min, 4° C.) to remove the culture supernatant. The precipitate was washed twice with 200 μl of FACS buffer (1×PBS containing 1% BSA and 1 mM EDTA). 20 μl of blocking solution (PBS containing 1:10 of normal mouse serum and 1:3 of anti-human CD14/CD32 (BD, 2.4G2) was added to each well and reacted on an ice for 30 min. A mixture solution of anti-human CD25-PE (1:16) and anti-human CD14-FITC (1:32) was added to the well and then reacted on the ice for 30 min. The reaction mixture was washed twice with 200 μl of FACS buffer, and then 200 μl of 7-AAD (1:20) was added to the reaction mixture. After the reaction mixture was reacted on the ice for 10 min, CD25 expression efficacy and cytotoxicity were analyzed by using a flow cytometer.
In order to analyze living cells, 7-AAD(−) cells were selected and an activation of nuclear transcription factor was confirmed by the increase of CD25 expression.

dendritic cells = test: Inhibition of E. coli LPS-induced activation of dendritic cells (CD40, CD80, CD86, I-Ab expression); assay type: cell-based, mouse; settings: 100 ng/ml E. coli LPS; CD11c(+)/7AAD(−) dendritic cells
Procedure: In order to assay the effect of sodium glycocholate on the activation procedure of antigen presenting cells, which is induced by E. coli LPS, cells were separated from the bone marrow of recombination activating gene 2 (Rag2) deficient mouse. The separated cells were plated at 2×10^5 cells/well in a 96-well plate and then treated with 1.5 ng/ml of granulocyt-macrophage colony-stimulating factor (GM-CSF) and 0.75 ng/ml of interleukin-4 followed by the differentiation of the cells into dentritic cells through 6-day incubation.
The dendritic cells were well mixed with sodium glycocholate and LPS. The mixtures were stimulated for 18 hours at 37° C., and stained with anti-CD40-FITC, anti-CD80-FITC, anti-I-Ab-PE, anti-CD86-PE, 7AAD and anti-CD11c-APC, then the cells were assayed via a flow cytometer. Each group was treated and assayed at least twice, and the results were statistically analyzed through t-test. The results were p<0.05 compared with the experimental groups treated by only LPS.
As shown FIGS. 9A-9B to 11A-11B, in order to assay only living dedritic cells, CD11c(+)/7AAD(−) cells were selected and then the expressions of dendritic cell costimulatory molecules and I-Ab were assayed.

[1] = system: dendritic cell-mediated T cell; test: Inhibition of the activation of dendritic cell-mediated T cell by E. coli LPS ([3H]-methylthymidine); assay type: cell-based, mouse
Procedure: Antigen presenting cells activated by LPS activates T cells. It was tested whether dendritic cells blocked by sodium glycocholate can activate T cells when LPS activates dendritic cells. Cells were harvested from the bone marrow of Rag2 deficient male mouse. The harvested cells were plated at 4×10^3 cells/well in a 96-well plate and treated with 1.5 ng/ml of […] and 0.75 ng/ml of interleukin-4, and then incubated for 6 days to differentiate into dendritic cells. Sodium glycocholate was reacted with LPS for 1 hour at 37° C., and then mixed with the dendritic cells. The dendritic cells were stimulated for 14 hours at 37° C., and CD3+ and CD4+ T cells separated from female Marilyn mouse having H-Y antigen-specific T cell receptor (TCR), were incubated with the dendritic cells for 72 hours. [3H]-methylthymidine was added, at 1 μCi/well, to the 96-well plate and then incubated for 18 hours. Cells were harvested from the 96-well plated and then CPM (count per minute) was measured through a beta counter.

[2] = system: ischemia-reperfusion renal injury; test: Ischemia-reperfusion renal injury model, organ preservative solution additive; assay type: in vivo, Sprague-Dawley rat; settings: 0.5 mg/ml in HTK solution
Procedure: The effect of sodium glycocholate to inflammatory response and renal function in an ischemia-reperfusion renal injury model, was evaluated. Five Sprague-Dawley (SD) male rats of 6 weeks age were used per each group, and foods and waters were not supplied to all the rats from 1 day before the experiment. The rats were anesthetized by the administration of 1 mg avertin (tribromoethanol/amyl hydrate)/100 g rat to the abdomen of the rats, and then laparotomized. All the blood flow to a left kidney was blocked by clamping the aorta and vena cava using vascular clamps. Before injecting the organ preservative solution, a vein of the left kidney was penetrated to minimize physical damage of the kidney due to the preservative solution pressure. Then, after histidine-tyroptophan-ketoglutarate (HTK) or a mixture solution of HTK and 0.5 mg/ml of sodium glycocholate was injected, at 4 ml/rat, into the vein, the damaged part of the vein was sutured by using 10-0 suture. After 30 min maintenance of the above state, the vascular clamps were removed and the laparotomized part was sutured. […] The concentration of IL-6 in the serum was measured by a enzyme-linked immunosorbent assay, and the concentrations of blood urea nitrogen (BUN), creatinine (Cre) and aspartate aminotransferase (AST) in the plasma were measured by an automated analyzer.

CHO cells = test: Cytotoxicity to CHO cells (7AAD, FACS); assay type: cell-based, Chinese hamster
Procedure: The cytotoxicity of sodium glycocholate to the CHO cells, dendritic cells, T cells which were used in the above Examples was assayed. FACS analysis was performed after staining with 7AAD. First, sodium glycocholate was kept in vitro for 1 hour at 37° C., and then mixed with cells. CHO cells or dendritic cells were incubated for 14 hours at 37° C., and T cells which were mixed with 14 hour-incubated dendritic cells, were incubated for 4 days. Then, each cell was stained with 7AAD and cell analysis were carried out by using a flow cytometer.
The same procedures as for FIG. 25A were carried out in FIGS. 26A-26C-Figs. 31A-31B and cytotoxicity experiments were performed on three groups of bile acid derivatives which were classified based on their solubility in different solvents.

C[C@H](CCC(=O)NCC(=O)[O-])[C@H]1CC[C@H]2[C@@H]3[C@H](O)C[C@@H]4C[C@H](O)CC[C@]4(C)[C@H]3C[C@H](O)[C@]12C.[Na+] [sodium glycocholate]
nuclear transcription factor inhibition (NF-κB; 0.5 mg/ml): 21.7±0.9% | nuclear transcription factor inhibition (NF-κB; 1 mg/ml): 88.2±1.2% | inhibition effect for LPS-stimulated CD25 expression (NF-κB activation) (NF-κB): inhibited depending on the concentration | inhibition effect for LPS-stimulated CD25 expression (NF-κB activation) (NF-κB; listed as sodium glycocholate hydrate): showed an inhibition effect | increased expression of CD40, CD80, CD86 and I-Ab (dendritic cells): inhibited depending on the concentration | inhibition of proliferation of dendritic cell-mediated T cell ([1]; 0.5 mg/ml): 104.9±3.2% | inhibition of proliferation of dendritic cell-mediated T cell ([1]; 1 mg/ml): 105.1±3.2% | ischemia-reperfusion renal injury [2]: inhibited | cytotoxicity (CHO cells; 1 mg/ml): no significant cytotoxicity; also recorded: dose not have cytotoxicity | 7AAD(+) increase compared with the negative control group (CHO cells; 14 hours): 2-4%
